# According to paper PMC3914206:
# How the values were obtained:
# panel of 442 kinases [1] = target: T1, panel of 442 kinases (Homo sapiens, UniProt O00444); type: binding; details: Compound Concentration 10 µM
# T1 construct: purchased KINOMEscan
# T1 sequence (O00444 1-970): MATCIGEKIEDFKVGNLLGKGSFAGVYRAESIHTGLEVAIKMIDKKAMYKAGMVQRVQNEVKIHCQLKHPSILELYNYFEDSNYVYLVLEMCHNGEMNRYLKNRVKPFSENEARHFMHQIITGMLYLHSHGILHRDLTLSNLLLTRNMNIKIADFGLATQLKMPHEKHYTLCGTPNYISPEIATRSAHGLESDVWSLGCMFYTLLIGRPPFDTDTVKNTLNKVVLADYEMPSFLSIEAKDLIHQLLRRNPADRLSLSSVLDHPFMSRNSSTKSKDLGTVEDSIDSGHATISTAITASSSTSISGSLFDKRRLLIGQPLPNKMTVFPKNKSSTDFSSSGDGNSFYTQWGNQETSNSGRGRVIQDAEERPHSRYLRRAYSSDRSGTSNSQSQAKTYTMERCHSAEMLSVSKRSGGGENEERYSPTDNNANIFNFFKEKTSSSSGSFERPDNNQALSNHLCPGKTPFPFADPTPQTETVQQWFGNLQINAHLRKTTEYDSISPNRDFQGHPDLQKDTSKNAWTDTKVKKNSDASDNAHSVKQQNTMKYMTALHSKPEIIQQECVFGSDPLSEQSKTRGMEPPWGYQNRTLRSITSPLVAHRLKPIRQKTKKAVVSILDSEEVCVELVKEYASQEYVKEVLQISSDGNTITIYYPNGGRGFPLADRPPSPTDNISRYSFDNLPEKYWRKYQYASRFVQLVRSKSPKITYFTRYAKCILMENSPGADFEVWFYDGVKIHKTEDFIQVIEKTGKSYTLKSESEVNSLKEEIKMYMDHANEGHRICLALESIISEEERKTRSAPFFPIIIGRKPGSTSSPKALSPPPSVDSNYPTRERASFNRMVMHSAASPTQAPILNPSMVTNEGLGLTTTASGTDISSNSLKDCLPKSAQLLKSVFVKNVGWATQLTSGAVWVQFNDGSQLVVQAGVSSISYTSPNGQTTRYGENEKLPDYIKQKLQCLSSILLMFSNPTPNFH
# Description: (§1) We assessed the selectivity of members of this scaffold using the KINOMEscan methodology across a near comprehensive panel of 442 kinases [[18,27]].
# panel of 442 kinases [2] = target: T2, panel of 442 kinases (Homo sapiens, UniProt P51955); type: binding; details: Compound Concentration 10 µM
# T2 construct: purchased KINOMEscan
# T2 sequence (P51955 1-445): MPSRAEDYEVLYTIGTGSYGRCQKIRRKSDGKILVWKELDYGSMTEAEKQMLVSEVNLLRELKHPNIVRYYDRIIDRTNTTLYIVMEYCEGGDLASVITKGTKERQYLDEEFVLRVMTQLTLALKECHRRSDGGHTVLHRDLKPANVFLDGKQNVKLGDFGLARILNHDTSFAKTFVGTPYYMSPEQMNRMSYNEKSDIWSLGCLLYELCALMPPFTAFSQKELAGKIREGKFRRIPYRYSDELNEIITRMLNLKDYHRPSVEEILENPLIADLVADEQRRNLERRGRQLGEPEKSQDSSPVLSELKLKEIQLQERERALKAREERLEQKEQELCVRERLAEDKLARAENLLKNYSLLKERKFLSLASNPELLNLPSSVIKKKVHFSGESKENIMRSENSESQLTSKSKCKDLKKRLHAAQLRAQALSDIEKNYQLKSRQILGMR
# Description: as §1
Compound,KINOMEscan: PLK4 (panel of 442 kinases [1]),KINOMEscan: NEK2 (panel of 442 kinases [2])
COc1cc(C(=O)N2CCC(N3CCN(C)CC3)CC2)ccc1Nc1ncc2c(n1)N1CCc3cccc(c31)C(=O)N2C [Compound 24],0.3,62
CCOc1cc(C(=O)N2CCC(N3CCN(C)CC3)CC2)ccc1Nc1ncc2c(n1)N(C1CCCC1)c1ccccc1C(=O)N2C [Compound 26],5.1,86
"COc1cc(C(=O)N2CCC(N3CCN(C)CC3)CC2)ccc1Nc1ncc2c(n1)N(C1CCCC1)c1ccccc1C(=O)N2C [Compound 25, 11-cyclopentyl-2-((2-methoxy-4-(4-(4-methylpiperazin-1-yl)piperidine-1-carbonyl)phenyl)amino)-5-methyl-5H-benzo[e]pyrimido[5,4-b][1,4]diazepin-6(11H)-one]",0.25,88
COc1cc(C(=O)N2CCC(N3CCN(C)CC3)CC2)ccc1Nc1ncc2c(n1)N(C)c1ccccc1C(=O)N2C [15 (LRRK2-IN-1)],0,100
